From patent publication EP2763666B1 (priority 2011, dated 2013)
Like-named read-outs stand apart in the source and are kept apart here.

Legend:
[1] = system: L. infantum infected dogs; format: in vivo; settings: for Antibody titre: mean ± standard deviation
[2] = system: L. infantum infected dogs; format: in vivo; settings: for RT-PCR on lymph node FNA: mean ± standard deviation
[3] = system: L. infantum infected dogs; format: in vivo; settings: mean ± standard deviation
[4] = system: L. infantum infected dogs; format: in vivo; settings: for A/G ratio / Serum albumin / Serum γ-globulin: mean ± standard deviation
[5] = system: L. infantum infected dogs; format: in vivo; settings: mean ± standard deviation; remark: listed apart in the source
canine blood monocytes = format: in vivo, dogs; settings: for Macrophages activity of killing: NO production / NBT reduction; for Macrophages activity of killing / Macrophages activity of binding: mean ± standard deviation; for Macrophages activity of binding: direct count of macrophages containing yeast cells
generalized demodicosis = test: Canine generalized demodicosis: IP versus milbemycin oxime; format: in vivo, dogs; settings: fraction of cases
Experimental: Twelve dogs diagnosed with generalized demodicosis were treated, 6 with IP and 6 with milbemycin oxime. Cases diagnosed before two years of age were classified as juvenile-onset (58.3%, 7 dogs) and those diagnosed after two years of age as adult-onset (41.6%, 5 dogs). […] As previous mentioned, in six dogs cured with milbemycin oxime, the drug was used for 1-6 months (mean 2.3 months) at a dosage of 0.5-1.6 mg kg-1 body weight (mean 0.75 mg kg-1). No significant difference in dosage or treatment time was seen between juvenile and adult cases. Six dogs cured with IP were treated at the same manner indicated as reported in Example 1, and 6). In group of IP treated dogs, not differences were observed between young and adult treated animals. […] Cases with severe pododemodicosis had less chance of a cure (2/3 not cured) by using M-O protocol, but not with IP protocol (2/2 cured).
Dogs: dogs of every age, breed or sex with generalized demodicosis were used in this study. All dogs. […] Dogs developing the disease at less than two years of age were classified as juvenile-onset generalized demodicosis. Dogs that developed disease at two years of age or older were classified as adult onset generalized demodicosis. […]
Follow-up: follow-up visits were scheduled once a month for clinical evaluation and skin scrapings. The scraping sites were recorded and sampled at each subsequent examination. […]

[6] = T0 (beginning of therapy), baseline

For `Cc1ccc(-c2cc(C(F)(F)F)nn2-c2ccc(S(N)(=O)=O)cc2)cc1` [Celecoxib], the “side effects: animals with chronic bleeding” value (5 control parrots treated only with anti-COX2) was “two”, the “death with acute hemorrhagic event in the proventriculus, time from initiation of therapy” value (adult female African Grey parrot) was ≤ 7 days and the “negativization of crop biopsies” value (histology at T1 (six months) and T2 (one year of therapy)) was 20%. The “renal side effect leading to discontinuation” value (in vivo) was “inducing renal failure”, the parrots survived (of 5 parrots, 1.5 year later) was 1 and the parrots died (of 5 parrots, during four months after the end of the therapy) was 4.
For Meglumine antimoniate [Control group], the “trend of antibody (Ab titre)” value ([1]; Figure 2A legend, after the first six months of the trial) was “antibody title increase”, the Antibody titre [1, 6] was 908 ± 1240 and the Antibody titre ([1]; T1 (2 months)) was 779 ± 1031. The Antibody titre ([1]; T2 (6 months)) was 378 ± 321, the Antibody titre ([1]; T3 (12 months)) was 493 ± 678 and the “PCR results, levels of DNA copies (trend)” value ([2]; Figure 2B legend, after two months of treatment up to one year) was “progressive increase of parasite DNA in lymphnodes and bone-marrow”. For the same compound, the “RT-PCR on lymph node FNA” value [2, 6] was 613.228 ± 747.653 Parasites/ml, the “RT-PCR on lymph node FNA” value ([2]; T1 (2 months)) was 287.482 ± 434.807 Parasites/ml and the “RT-PCR on lymph node FNA” value ([2]; T2 (6 months)) was 210.103 ± 364.909 Parasites/ml. The “RT-PCR on lymph node FNA” value ([2]; T3 (12 months)) was 340.367 ± 511.898 Parasites/ml, the Clinical scores [3, 6] was 4,4 ±2 and the Clinical scores ([3]; T1 (2 months)) was 2,5 ± 1,9. For the same compound, the Clinical scores ([3]; T2 (6 months)) was 2,7 ±2, the Clinical scores ([3]; T3 (12 months)) was 2,8 ± 2,2 and the “electrophoresis: gamma-globulins levels in sera (trend)” value ([4]; Figure 2D legend) was “after a first period of decreasing trend, the gamma globulins trend increase”. For the same compound, the A/G ratio [4, 6] was 0,48 ± 0,23, the Serum albumin [4, 6] was 30,08 ± 9,63% and the “Serum γ-globulin” value [4, 6] was 30,67 ± 7,91%. For the same compound, the A/G ratio ([4]; T1 (2 months)) was 0,55 ± 0,23, the Serum albumin ([4]; T1 (2 months)) was 34,03 ± 9,5% and the “Serum γ-globulin” value ([4]; T1 (2 months)) was 23,15 ± 7,46%. The A/G ratio ([4]; T2 (6 months)) was 0,57 ± 0,23, the Serum albumin ([4]; T2 (6 months)) was 35,22 ± 9,35% and the “Serum γ-globulin” value ([4]; T2 (6 months)) was 21,56 ± 5,86%. The A/G ratio ([4]; T3 (12 months)) was 0,57 ± 0,22, the Serum albumin ([4]; T3 (12 months)) was 35,26 ±9,61% and the “Serum γ-globulin” value ([4]; T3 (12 months)) was 22,74 ± 7,93%. For the same compound, the “CD3^+/CD21^+ ratio” value [5, 6] was 42,62 ± 21,24, the “CD4^+/CD8^+ ratio” value [5, 6] was 1,02 ± 0,48 and the “CD3^+/CD21^+ ratio” value ([5]; T1 (2 months)) was 38,13 ± 20,56. For the same compound, the “CD4^+/CD8^+ ratio” value ([5]; T1 (2 months)) was 1,04 ± 0,46, the “CD3^+/CD21^+ ratio” value ([5]; T2 (6 months)) was 39,85 ± 17,58 and the “CD4^+/CD8^+ ratio” value ([5]; T2 (6 months)) was 1,02 ± 0,45. For the same compound, the “CD3^+/CD21^+ ratio” value ([5]; T3 (12 months)) was 38,64 ± 19,54, the “CD4^+/CD8^+ ratio” value ([5]; T3 (12 months)) was 1,31 ± 0,58 and the “Macrophages killing activity, levels of NO production / NBT reduction (trend)” value (canine blood monocytes; Figure 4A legend) was “constantly low”. The “Macrophages activity of killing” value (canine blood monocytes; [6]) was 1,1 ± 0,1, the “Macrophages activity of binding” value (canine blood monocytes; [6]) was 31,84 ± 12,9 and the “Macrophages activity of killing” value (canine blood monocytes; T1 (2 months)) was 1,2 ± 0,1. The “Macrophages activity of binding” value (canine blood monocytes; T1 (2 months)) was 34,84 ± 14,2, the “Macrophages activity of killing” value (canine blood monocytes; T2 (6 months)) was 1,1 ± 0,1 and the “Macrophages activity of binding” value (canine blood monocytes; T2 (6 months)) was 35,42 ± 13,68. For the same compound, the “Macrophages activity of killing” value (canine blood monocytes; T3 (12 months)) was 1,1 ± 0,1 and the “Macrophages activity of binding” value (canine blood monocytes; T3 (12 months)) was 32,77 ± 12,78.
For milbemycin oxime [M-O], the “cases with severe pododemodicosis not cured” value (generalized demodicosis) was 2/3.
